SMILES strings stand for the structures. Where a SMILES comes first, the peptide text is derived from it. Bridges are numbered along the chain shown (N, C = ends).

In the assay the target is T1, epithelial sodium channels (Homo sapiens, UniProt P37088+P51168+P51170).
T1 construct: endogenous in cells; host or cells: A549 human lung epithelial cells (ATCC CCL-185)
T1 sequence (P37088 1-669): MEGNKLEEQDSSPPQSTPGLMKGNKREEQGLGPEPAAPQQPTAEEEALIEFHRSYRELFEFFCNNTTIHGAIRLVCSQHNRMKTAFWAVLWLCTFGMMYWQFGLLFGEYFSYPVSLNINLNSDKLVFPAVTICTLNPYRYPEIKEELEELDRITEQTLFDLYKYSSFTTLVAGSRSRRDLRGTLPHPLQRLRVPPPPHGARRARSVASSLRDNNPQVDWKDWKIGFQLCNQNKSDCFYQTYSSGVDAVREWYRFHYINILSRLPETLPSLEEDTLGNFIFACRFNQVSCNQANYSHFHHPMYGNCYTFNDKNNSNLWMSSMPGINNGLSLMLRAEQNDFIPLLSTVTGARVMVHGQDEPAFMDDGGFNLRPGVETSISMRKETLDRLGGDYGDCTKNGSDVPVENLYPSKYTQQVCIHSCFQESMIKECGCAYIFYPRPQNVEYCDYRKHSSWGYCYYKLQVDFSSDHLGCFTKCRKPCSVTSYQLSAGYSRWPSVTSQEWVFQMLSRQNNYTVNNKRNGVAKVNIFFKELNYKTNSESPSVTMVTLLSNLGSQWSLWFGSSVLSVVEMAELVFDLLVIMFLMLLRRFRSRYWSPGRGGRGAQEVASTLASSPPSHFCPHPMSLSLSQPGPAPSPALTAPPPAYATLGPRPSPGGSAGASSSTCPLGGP
T1 sequence (P51168 1-640): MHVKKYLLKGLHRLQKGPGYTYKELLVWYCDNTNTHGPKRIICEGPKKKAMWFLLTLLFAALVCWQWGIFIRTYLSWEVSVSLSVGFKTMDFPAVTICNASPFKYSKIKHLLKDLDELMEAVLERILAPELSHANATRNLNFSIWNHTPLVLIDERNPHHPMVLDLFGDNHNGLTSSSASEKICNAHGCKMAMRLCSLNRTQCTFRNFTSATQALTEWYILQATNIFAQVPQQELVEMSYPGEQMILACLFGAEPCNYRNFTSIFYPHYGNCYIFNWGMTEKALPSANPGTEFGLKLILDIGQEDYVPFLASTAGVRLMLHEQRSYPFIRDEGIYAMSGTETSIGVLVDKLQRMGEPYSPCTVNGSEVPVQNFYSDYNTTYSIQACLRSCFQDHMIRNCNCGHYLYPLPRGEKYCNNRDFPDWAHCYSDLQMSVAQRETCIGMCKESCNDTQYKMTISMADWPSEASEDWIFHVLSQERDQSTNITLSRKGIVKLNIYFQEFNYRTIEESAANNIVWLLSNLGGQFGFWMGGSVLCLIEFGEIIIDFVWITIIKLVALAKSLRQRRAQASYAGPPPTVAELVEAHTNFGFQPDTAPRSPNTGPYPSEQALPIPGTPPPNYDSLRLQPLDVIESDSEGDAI
T1 sequence (P51170 1-649): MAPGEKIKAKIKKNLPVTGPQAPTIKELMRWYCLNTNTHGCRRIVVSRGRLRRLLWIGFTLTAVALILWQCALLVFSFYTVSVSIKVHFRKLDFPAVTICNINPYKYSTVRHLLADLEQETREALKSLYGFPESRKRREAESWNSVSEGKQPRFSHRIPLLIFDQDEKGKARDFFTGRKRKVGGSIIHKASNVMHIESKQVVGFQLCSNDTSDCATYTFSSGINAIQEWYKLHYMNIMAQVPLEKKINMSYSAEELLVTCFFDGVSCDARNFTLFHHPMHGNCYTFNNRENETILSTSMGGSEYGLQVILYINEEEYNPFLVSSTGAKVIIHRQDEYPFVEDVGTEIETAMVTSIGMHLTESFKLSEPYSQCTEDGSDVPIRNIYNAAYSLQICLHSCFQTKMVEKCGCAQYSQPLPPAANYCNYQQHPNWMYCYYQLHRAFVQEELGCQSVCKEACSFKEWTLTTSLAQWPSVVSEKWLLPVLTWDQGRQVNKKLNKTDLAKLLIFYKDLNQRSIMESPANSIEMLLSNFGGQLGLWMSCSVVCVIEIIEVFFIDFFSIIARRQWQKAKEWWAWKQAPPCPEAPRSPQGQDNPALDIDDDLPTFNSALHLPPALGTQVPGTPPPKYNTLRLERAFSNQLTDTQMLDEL
The assay can be described thus: Patch-clamp activation of sodium ion channels in A549 cells. The note with it: whole cell / cell-attached, amiloride-sensitive sodium current. The class given is cell-based. The source says: Furthermore, a method common in laboratories is to detect the activation of ion channels by means of patch-clamp experiments, and this is described, for example, in Clunes M. T. et al, J Physiol Volume 557, No. 3, 809-819 (Jun. 15, 2004). For patch-clamp examinations of ion channels, a glass cannula is stretched thin and filled with a neutral buffer solution. The glass cannula (patch-clamp pipette) is carefully pressed onto an intact epithelial cell. A piece of membrane is located below the pipette. An electrical resistance is thereby produced between the interior of the pipette and the external solution. An electrode attached to a sensitive amplifier dips into the pipette solution.
The electrophysiological experiments were performed on human A549 cells (ATTC No. CCL-185). A549 cells are human lung epithelial cells which are involved in the diffusion of water and electrolytes in the lungs.
The cells were suspended in DMEM-F-12 medium with 1% penicillin-streptomycin and 10% fetal calf serum, transferred into plastic cell culture vessels and cultivated in the incubator with 95% air and 5% CO2 at 37° C. The medium was changed 2 to 3 times per week. The cells double within approx. 22 hours and a cell concentration of more than 7×10^4 cells per cm^2 was not exceeded.
Macroscopic currents and single-channel currents were discharged from A549 cells in the “whole cell” and “cell-attached” configuration of the “patch-clamp” technique (Hamill et al, Pflugers Arch. 1981, 391(2):85-100, 1981). For the current dissipations in the “whole cell” configuration, the following bath and electrode solutions were used:
Bath solution: 135 mM sodium methane sulfonate, 10 mM NaCl, 2.7 mM KCl, 1.8 mM CaCl2, 2 mM MgCl2, 5.5 mM glucose, and 10 mM HEPES, pH 7.4. […]
The cover slips with the cells cultivated thereon were transferred into a test bath with a capacity of 1 ml, fixed on the microscope table (Axiovert 100, 400-fold magnification), and the cells were superfused with the above-described bath solution. […] In the “cell-attached” configuration, the current can be measured through individual ion channels beneath the electrode tip. In the “whole cell” configuration, the membrane was penetrated beneath the electrode tip so that the current flowing through all ion channels of the cell could be measured. […] Upon obtaining a Gigaohm seal, a defined membrane retaining potential was applied via a pre-amplifier (CV-4 Headstage, Axon Instruments) and an amplifier (Axopatch 1D, Axon Instr.) and the current thereby flowing through the ion channels was measured.
The pulse protocol consisted of a hyperpolarization to −100 mV for 1 s at an interval of 5 s. […] The current dissipations thus obtained were stored and analyzed by means of the program PCLAMP 6.0. […]
(In general: The patch-clamp technique gives a direct electrical read-out from membranes.)
As for `C[C@@H]1NC(=O)CNC(=O)[C@H](CCC(=O)O)NC(=O)[C@@H]2CCCN2C(=O)[C@H]([C@@H](C)O)NC(=O)[C@H](CCC(=O)O)NC(=O)[C@H](CCCNC(=N)N)NC(=O)[C@H](CCC(N)=O)NC(=O)[C@@H](N)CSSC[C@@H](C(=O)O)NC(=O)CNC(=O)CNC(=O)[C@H](CCCCN)NC(=O)[C@H](C)NC(=O)[C@H](CCC(=O)O)NC1=O` [SEQ ID NO:3, (NH2)Cys-Gln-Arg-Glu-Thr-Pro-Glu-Gly-Ala-Glu-Ala-Lys-Gly-Gly-Cys(COOH)] (H-CQRETPEGAEAKGGC-OH; disulfide 1-15), the “activation of the sodium ion channels (patch clamp)” value was “activation of the sodium ion channels”. Take `CC[C@H](C)[C@H](NC(=O)[C@H](C)N)C(=O)N[C@@H](CCCCN)C(=O)N[C@@H](CO)C(=O)N1CCC[C@H]1C(=O)N[C@H]1CSSC[C@@H](C(=O)N2CCC[C@H]2C(=O)N[C@@H](CO)C(=O)N[C@H](C(=O)N[C@@H](Cc2c[nH]cn2)C(=O)N[C@H](C(=O)O)C(C)C)[C@@H](C)O)NC(=O)CNC(=O)CNC(=O)[C@H](CCCCN)NC(=O)[C@H](C)NC(=O)[C@H](CCC(=O)O)NC(=O)[C@H](C)NC(=O)CNC(=O)[C@H](CCC(=O)O)NC(=O)[C@@H]2CCCN2C(=O)[C@H]([C@@H](C)O)NC(=O)[C@H](CCC(=O)O)NC(=O)[C@H](CCCNC(=N)N)NC(=O)[C@H](CCC(N)=O)NC1=O` [SEQ ID NO:1] (H-AIKSPCQRETPEGAEAKGGCPSTHV-OH; disulfide 6-20): the “activation of the sodium ion channels (patch clamp)” value was “activation of the sodium ion channels”. The result for `C[C@@H]1NC(=O)CNC(=O)[C@H](CCC(=O)O)NC(=O)[C@@H]2CCCN2C(=O)[C@H]([C@@H](C)O)NC(=O)[C@H](CCC(=O)O)NC(=O)[C@H](CCCNC(=N)N)NC(=O)[C@H](CCC(N)=O)NC(=O)[C@@H](NC(=O)[C@@H]2CCCN2C(=O)[C@H](CO)NC(=O)[C@@H](N)CCCCN)CSSC[C@@H](C(=O)N2CCC[C@H]2C(=O)N[C@@H](CO)C(=O)O)NC(=O)CNC(=O)CNC(=O)[C@H](CCCCN)NC(=O)[C@H](C)NC(=O)[C@H](CCC(=O)O)NC1=O` [SEQ ID NO:2] (H-KSPCQRETPEGAEAKGGCPS-OH; disulfide 4-18) reads “activation of the sodium ion channels”.

The values are drawn from US8372799B2, “Reverse protein” (Apeptico Forschung und Entwicklung GmbH, priority 2007, dated 2013).
